How the values were obtained:
[1] = target: T1, trypsin (Bos taurus, UniProt P00760); assay: X-ray structure of co-crystal (fragment screen); format: binding; settings: pH 7 HEPES, 10 mM CaCl2
T1 construct: gene PRSS1
T1 sequence (P00760 24-246): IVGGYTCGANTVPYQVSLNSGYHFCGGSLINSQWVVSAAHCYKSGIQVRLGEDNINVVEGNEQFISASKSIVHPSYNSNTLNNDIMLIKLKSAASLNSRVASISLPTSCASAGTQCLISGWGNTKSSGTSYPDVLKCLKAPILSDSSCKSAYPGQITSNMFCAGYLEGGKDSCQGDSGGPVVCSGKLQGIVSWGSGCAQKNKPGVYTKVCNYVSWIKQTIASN

[2] = target: T2, lysozyme (Gallus gallus, UniProt P00698); assay: X-ray structure of co-crystal (fragment screen); format: binding; settings: pH 4.6 acetate, 4% NaCl
T2 construct: gene LYZ

[3] = target: T3, stachydrine demethylase (Sinorhizobium meliloti, UniProt Q92ZP9); assay: X-ray structure of co-crystal; demethylated product seen; format: binding; settings: 2.3 A; pH 7 HEPES; 25 mM hexaamine CoCl2; N-methyl group cleaved on X-ray exposure, only L-proline in the density
T3 construct: gene stc2

[4] = target: T3, stachydrine demethylase; settings: 2.3 A; pH 7 HEPES; 25 mM hexaamine CoCl2

c1c[nH]cn1 [imidazole]
X-ray structure of co-crystal (fragment screen) ([1]; 10 mg/ml benzamidine present, allosteric site distant from the active site): imidazole (a previously unreported allosteric binding mode that is distant from the active site; PDB entry 4ncy)

N=C(N)c1ccccc1 [benzamidine]
X-ray structure of co-crystal (fragment screen) [2]: Benzamidine was also observed to bind to lysozyme, a previously unreported result (PDB entry 4n8z)
X-ray structure of co-crystal (fragment screen) ([1]; known control): the known benzamidine ligand in the best diffracting no-hit screen

CN1CCC[C@H]1C(=O)O [N-methylproline]
X-ray structure of co-crystal; demethylated product seen [3]: exposure to X-rays quickly induces enzymatic cleavage of the N-methyl group, leaving behind L-proline

CC(=O)N[C@H]1C(O)O[C@H](CO)[C@@H](O)[C@@H]1O (stereo partly drawn) [N-acetylglucosamine]
X-ray structure of co-crystal (fragment screen) [2]: The known N-acetylglucosamine ligand was easily identified in the electron density

O=C(O)[C@@H]1CCCN1 [L-proline]
X-ray structure of co-crystal [4]: When L-proline was co-crystallized with stachydrine demethylase, the L-proline was observed in the electron density
